In US12215140B2, “Method of stabilizing protein contained in specimen and solution for stabilizing protein contained in specimen” (EIKEN KAGAKU KABUSHIKI KAISHA, priority 2018, dated 2025):

Molecular target: hemoglobin (Homo sapiens, UniProt P68871+P69905)
Test: Stability of hemoglobin in samples preserved at 37° C. in preservation solution containing no haptoglobin, Hb measured by latex agglutination method (Examples 8, 9 and Table 10)
Protocol: Preservation solutions were prepared with the addition of 40 mmol/L HEPES (pH 6.8), 0.1% BSA, 0.1% NaN3, and 0 to 2.5 mmol/L phenylboronic acid. […] Samples obtained by adding hemoglobin-added fecal specimens to the preservation solutions so that the fecal concentration would be 0.5% were preserved at 37° C. for 0, 16, 38, and 62 hours. The fecal specimens were added with hemoglobin having an amount such that the hemoglobin concentration in the samples would be about 300 μg/L. Instead of the fecal specimens to which hemoglobin was added, samples containing no fecal specimens, in which hemoglobin was added to the preservation solutions so that the hemoglobin concentration in the samples would be 300 μg/L, were similarly preserved. The hemoglobin (Hb) concentrations (μg/L) in the preserved samples were measured by the latex agglutination method using the same measurement reagent and measurement device as in Example 1.
The concentration of phenylboronic acid in the preservation solutions of Example 8 was fixed to 0.5 mmol/L, preservation solutions to which sorbitol or sucrose was further added at 10 to 250 mmol/L or trehalose, glucose, fructose, or mannitol was further added at 50 to 100 mmol/L were prepared, and testing was conducted in the same manner as in Example 8. In addition, preservation solutions to which the phenylboronic acid was added but no sugar was added were prepared, preservation solutions to which the phenylboronic acid and sugar were not added were prepared for the comparative examples, and testing was conducted in the same manner.
For comparative examples, preservation solutions to which no arylboronic acid was added were prepared, and testing was conducted in the same manner.

[1] = Feces 1, 0 h at 37° C., arylboronic acid 0.5 mmol/L, no sugar
[2] = Feces 1, 16 h at 37° C., arylboronic acid 0.5 mmol/L, no sugar
[3] = Feces 1, 38 h at 37° C., arylboronic acid 0.5 mmol/L, no sugar
[4] = Feces 1, 62 h at 37° C., arylboronic acid 0.5 mmol/L, no sugar
[5] = Feces 1, arylboronic acid 0.5 mmol/L, 0 h at 37° C.
[6] = Feces 1, arylboronic acid 0.5 mmol/L, 16 h at 37° C.
[7] = Feces 1, arylboronic acid 0.5 mmol/L, 38 h at 37° C.
[8] = Feces 1, arylboronic acid 0.5 mmol/L, 62 h at 37° C.
[9] = Feces 1, arylboronic acid 1 mmol/L, 0 h at 37° C.
[10] = Feces 1, arylboronic acid 1 mmol/L, 16 h at 37° C.
[11] = Feces 1, arylboronic acid 1 mmol/L, 38 h at 37° C.
[12] = Feces 1, arylboronic acid 1 mmol/L, 62 h at 37° C.
[13] = Feces 2, 0 h at 37° C., arylboronic acid 0.5 mmol/L, no sugar
[14] = Feces 2, 16 h at 37° C., arylboronic acid 0.5 mmol/L, no sugar
[15] = Feces 2, 38 h at 37° C., arylboronic acid 0.5 mmol/L, no sugar
[16] = Feces 2, 62 h at 37° C., arylboronic acid 0.5 mmol/L, no sugar
[17] = Feces 2, arylboronic acid 0.5 mmol/L, 0 h at 37° C.
[18] = Feces 2, arylboronic acid 0.5 mmol/L, 16 h at 37° C.
[19] = Feces 2, arylboronic acid 0.5 mmol/L, 38 h at 37° C.
[20] = Feces 2, arylboronic acid 0.5 mmol/L, 62 h at 37° C.
[21] = Feces 2, arylboronic acid 1 mmol/L, 0 h at 37° C.
[22] = Feces 2, arylboronic acid 1 mmol/L, 16 h at 37° C.
[23] = Feces 2, arylboronic acid 1 mmol/L, 38 h at 37° C.
[24] = Feces 2, arylboronic acid 1 mmol/L, 62 h at 37° C.
[25] = Feces 3, 0 h at 37° C., arylboronic acid 0.5 mmol/L, no sugar
[26] = Feces 3, 16 h at 37° C., arylboronic acid 0.5 mmol/L, no sugar
[27] = Feces 3, 38 h at 37° C., arylboronic acid 0.5 mmol/L, no sugar
[28] = Feces 3, 62 h at 37° C., arylboronic acid 0.5 mmol/L, no sugar
[29] = Feces 3, arylboronic acid 0.5 mmol/L, 0 h at 37° C.
[30] = Feces 3, arylboronic acid 0.5 mmol/L, 16 h at 37° C.
[31] = Feces 3, arylboronic acid 0.5 mmol/L, 38 h at 37° C.
[32] = Feces 3, arylboronic acid 0.5 mmol/L, 62 h at 37° C.
[33] = Feces 3, arylboronic acid 1 mmol/L, 0 h at 37° C.
[34] = Feces 3, arylboronic acid 1 mmol/L, 16 h at 37° C.
[35] = Feces 3, arylboronic acid 1 mmol/L, 38 h at 37° C.
[36] = Feces 3, arylboronic acid 1 mmol/L, 62 h at 37° C.
[37] = No feces, 0 h at 37° C., arylboronic acid 0.5 mmol/L, no sugar
[38] = No feces, 16 h at 37° C., arylboronic acid 0.5 mmol/L, no sugar
[39] = No feces, 38 h at 37° C., arylboronic acid 0.5 mmol/L, no sugar
[40] = No feces, 62 h at 37° C., arylboronic acid 0.5 mmol/L, no sugar
[41] = No feces, arylboronic acid 0.5 mmol/L, 0 h at 37° C.
[42] = No feces, arylboronic acid 0.5 mmol/L, 16 h at 37° C.
[43] = No feces, arylboronic acid 0.5 mmol/L, 38 h at 37° C.
[44] = No feces, arylboronic acid 0.5 mmol/L, 62 h at 37° C.
[45] = No feces, arylboronic acid 1 mmol/L, 0 h at 37° C.
[46] = No feces, arylboronic acid 1 mmol/L, 16 h at 37° C.
[47] = No feces, arylboronic acid 1 mmol/L, 38 h at 37° C.
[48] = No feces, arylboronic acid 1 mmol/L, 62 h at 37° C.

hemoglobin, sequence (P69905 2-142): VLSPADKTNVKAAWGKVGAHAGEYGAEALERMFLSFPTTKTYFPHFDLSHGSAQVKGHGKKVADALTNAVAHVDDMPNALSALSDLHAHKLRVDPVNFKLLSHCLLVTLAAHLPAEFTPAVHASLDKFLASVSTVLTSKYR
hemoglobin, sequence (P68871 2-147): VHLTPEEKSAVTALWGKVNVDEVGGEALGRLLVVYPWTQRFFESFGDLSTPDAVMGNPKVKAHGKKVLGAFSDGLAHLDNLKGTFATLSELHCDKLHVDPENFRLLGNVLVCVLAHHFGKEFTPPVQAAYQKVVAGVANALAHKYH

Question: What does the source list for `OB(O)c1ccccc1` [PBA]?
Answer: Hb concentration [1]: 300 µg/L; Recovery ratio with respect to Hb after 0 days [1]: 100%; Hb concentration [2]: 174 µg/L; Recovery ratio with respect to Hb after 0 days [2]: 58%; Hb concentration [3]: 74 µg/L; Recovery ratio with respect to Hb after 0 days [3]: 25%; Hb concentration [4]: 17 µg/L; Recovery ratio with respect to Hb after 0 days [4]: 6%; Hb concentration [5]: 300 µg/L; Recovery ratio with respect to Hb after 0 days [5]: 100%; Hb concentration [6]: 174 µg/L; Recovery ratio with respect to Hb after 0 days [6]: 58%; Hb concentration [7]: 74 µg/L; Recovery ratio with respect to Hb after 0 days [7]: 25%; Hb concentration [8]: 17 µg/L; Recovery ratio with respect to Hb after 0 days [8]: 6%; Hb concentration [9]: 298 µg/L; Recovery ratio with respect to Hb after 0 days [9]: 100%; Hb concentration [10]: 182 µg/L; Recovery ratio with respect to Hb after 0 days [10]: 61%; Hb concentration [11]: 92 µg/L; Recovery ratio with respect to Hb after 0 days [11]: 31%; Hb concentration [12]: 30 µg/L; Recovery ratio with respect to Hb after 0 days [12]: 10%; Hb concentration [13]: 299 µg/L; Recovery ratio with respect to Hb after 0 days [13]: 100%; Hb concentration [14]: 103 µg/L; Recovery ratio with respect to Hb after 0 days [14]: 34%; Hb concentration [15]: 10 µg/L; Recovery ratio with respect to Hb after 0 days [15]: 3%; Hb concentration [16]: 0 µg/L; Recovery ratio with respect to Hb after 0 days [16]: 0%; Hb concentration [17]: 299 µg/L; Recovery ratio with respect to Hb after 0 days [17]: 100%; Hb concentration [18]: 103 µg/L; Recovery ratio with respect to Hb after 0 days [18]: 34%; Hb concentration [19]: 10 µg/L; Recovery ratio with respect to Hb after 0 days [19]: 3%; Hb concentration [20]: 0 µg/L; Recovery ratio with respect to Hb after 0 days [20]: 0%; Hb concentration [21]: 299 µg/L; Recovery ratio with respect to Hb after 0 days [21]: 100%; Hb concentration [22]: 119 µg/L; Recovery ratio with respect to Hb after 0 days [22]: 40%; Hb concentration [23]: 17 µg/L; Recovery ratio with respect to Hb after 0 days [23]: 6%; Hb concentration [24]: 0 µg/L; Recovery ratio with respect to Hb after 0 days [24]: 0%; Hb concentration [25]: 289 µg/L; Recovery ratio with respect to Hb after 0 days [25]: 100%; Hb concentration [26]: 92 µg/L; Recovery ratio with respect to Hb after 0 days [26]: 32%; Hb concentration [27]: 8 µg/L; Recovery ratio with respect to Hb after 0 days [27]: 3%; Hb concentration [28]: 0 µg/L; Recovery ratio with respect to Hb after 0 days [28]: 0%; Hb concentration [29]: 289 µg/L; Recovery ratio with respect to Hb after 0 days [29]: 100%; Hb concentration [30]: 92 µg/L; Recovery ratio with respect to Hb after 0 days [30]: 32%; Hb concentration [31]: 8 µg/L; Recovery ratio with respect to Hb after 0 days [31]: 3%; Hb concentration [32]: 0 µg/L; Recovery ratio with respect to Hb after 0 days [32]: 0%; Hb concentration [33]: 287 µg/L; Recovery ratio with respect to Hb after 0 days [33]: 100%; Hb concentration [34]: 112 µg/L; Recovery ratio with respect to Hb after 0 days [34]: 39%; Hb concentration [35]: 14 µg/L; Recovery ratio with respect to Hb after 0 days [35]: 5%; Hb concentration [36]: 0 µg/L; Recovery ratio with respect to Hb after 0 days [36]: 0%; Hb concentration [37]: 295 µg/L; Recovery ratio with respect to Hb after 0 days [37]: 100%; Hb concentration [38]: 284 µg/L; Recovery ratio with respect to Hb after 0 days [38]: 96%; Hb concentration [39]: 270 µg/L; Recovery ratio with respect to Hb after 0 days [39]: 91%; Hb concentration [40]: 263 µg/L; Recovery ratio with respect to Hb after 0 days [40]: 89%; Hb concentration [41]: 295 µg/L; Recovery ratio with respect to Hb after 0 days [41]: 100%; Hb concentration [42]: 284 µg/L; Recovery ratio with respect to Hb after 0 days [42]: 96%; Hb concentration [43]: 270 µg/L; Recovery ratio with respect to Hb after 0 days [43]: 91%; Hb concentration [44]: 263 µg/L; Recovery ratio with respect to Hb after 0 days [44]: 89%; Hb concentration [45]: 292 µg/L; Recovery ratio with respect to Hb after 0 days [45]: 100%; Hb concentration [46]: 276 µg/L; Recovery ratio with respect to Hb after 0 days [46]: 95%; Hb concentration [47]: 261 µg/L; Recovery ratio with respect to Hb after 0 days [47]: 90%; Hb concentration [48]: 259 µg/L; Recovery ratio with respect to Hb after 0 days [48]: 89%
